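Interpolation was linear, between the two tested concentrations surrounding the appropriate level; five concentrations were tested over 48 hours in 96-well plates. TGI is the concentration that stops growth completely.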
How the values were obtained:
Test in all cases: DTP human tumour cell line panel, 48 h
[1] = test system: SK-MEL-5 melanoma
[2] = test system: HL-60(TB) leukemia
[3] = test system: SR leukemia
[4] = test system: U251 CNS
[5] = test system: SNB-78 CNS
[6] = test system: OVCAR-8 ovarian
[7] = test system: ACHN renal
[8] = test system: HCT-116 colon
[9] = test system: SF-539 CNS
[10] = test system: SF-268 CNS
[11] = test system: A549 NSCLC

Measured: TGI

CNC(=O)CN1CC(=O)N(C)C(=O)C1
> 100 µM: [1] | [2] | [3] | [4] | [5]

COc1ccc2c(c1)c1cc(OC)ccc1n2CCCCOc1ccc(-c2c3ccccc3c(-c3ccc(OCCCCn4c5ccc(OC)cc5c5cc(OC)ccc54)cc3)c3ccccc23)cc1
> 100 µM: [6] | [7] | [8] | [9] | [10] | [11]

Reference: PubChem BioAssay (NCI)
